Data reported in patent EP0866709B1, “1,2,4-BENZOTRIAZINE OXIDES FORMULATIONS” (priority 1995, dated 1997).
≈ marks a conversion by molar mass, not a printed value. Where two headings read alike, the source gives them in different places.

What was measured:
[1] = tested on: hypoxic cells; settings: cited from earlier work
[2] = tested on: hypoxic cells; settings: Human; in vitro; drug concentration required under aerobic vs. hypoxic conditions for equivalent cell killing; cited from earlier work
[3] = tested on: dog; experiment: Single and 2-week and 2-month multiple-dose studies; assay type: in vivo; settings: each regimen (single, 2-week, 2-month multiple-dose)
Experimental: (§1) Single and 2-week and 2-month multiple-dose studies were performed in the rat and the dog.

[4] = tested on: rat; experiment: as above; assay type: in vivo; settings: each regimen (single, 2-week, 2-month multiple-dose)
Experimental: as §1

[5] = tested on: mouse tumor models; experiment: Tirapazamine with radiation in vivo
[6] = tested on: CHO-HA-1; experiment: In vitro cytotoxicity under aerobic or hypoxic conditions; assay type: cell-based, Hamster; settings: CHO-HA-1 (normal); 1-hour incubation under hypoxic conditions
[7] = tested on: AG 1522; experiment: as above; assay type: cell-based; settings: Homo sapiens; AG 1522 (normal); 1-hour incubation under hypoxic conditions
[8] = Stress stability study, multiple autoclave cycles of 21 minutes at 121°C; assay type: physicochemical
Experimental: Stress studies were conducted using multiple autoclave cycles of 21 minutes at 121°C. […] A shift in the normal saline formulation pH occurred after eight autoclave cycles from 4.5 to 4.9, therefore formulations required some degree of buffering.

[9] = tested on: FSaIIC fibrosarcoma; experiment: Tirapazamine with chemotherapy in vivo; design: species or system mice; settings: tirapazamine 50 mg/kg IP added to cyclophosphamide (150 mg/kg IP), melphalan (10 mg/kg IP), or cisplatin (10 mg/kg IP)
[10] = tested on: FSaIIC Murine Fibrosarcoma; settings: administered just before single-dose treatment with cyclophosphamide, carmustine or melphalan; cited from earlier work
[11] = tested on: HT 1080; experiment: In vitro cytotoxicity under aerobic or hypoxic conditions; assay type: cell-based; settings: Homo sapiens; HT 1080 (tumor); 1-hour incubation under hypoxic conditions
[12] = phosphate buffer at pH 7.4; cited from earlier work
[13] = tested on: RIF-1; experiment: In vitro cytotoxicity under aerobic or hypoxic conditions; assay type: cell-based; settings: Mus musculus; RIF-1 (tumor); 1-hour incubation under hypoxic conditions
[14] = assay type: physicochemical
Description: […]. The planar nature of the molecule would facilitate an ordered stacking with the crystal with intermolecular attractions (charge transfer interactions) between each plane via the nitrogen and oxygen of the N-oxide functions. A hydrated form of tirapazamine can exist where water molecules are hydrogen bonded to the oxygen components.

[15] = tested on: SCCVII; experiment: In vitro cytotoxicity under aerobic or hypoxic conditions; assay type: cell-based; settings: Mus musculus; SCCVII (tumor); 1-hour incubation under hypoxic conditions
[16] = Stress stability on storage at 50°C and 70°C after a single autoclave cycle; assay type: physicochemical
Experimental: Formulations were also stressed by storing at elevated temperatures of 50°C and 70°C after a single autoclave cycle of 21 minutes at 121°C. […] This instability was not apparent from multiple autoclave stressing.
The clinical formulation used in chemical studies discussed later was as follows: […]

[17] = tested on: HCT-8; experiment: In vitro cytotoxicity under aerobic or hypoxic conditions; assay type: cell-based; settings: Homo sapiens; HCT-8 (tumor); 1-hour incubation under hypoxic conditions
[18] = tested on: FSaIIC fibrosarcoma; experiment: Tirapazamine alone in vivo; design: species or system mice
Description: (§2) When given alone in vivo in mice, tirapazamine-in single doses-would be expected to produce a relatively small cell kill corresponding to the percentage of tumor cells which are hypoxic. A number of experiments have shown this to be the case, with cell kills typically less than one log (surviving fraction ≥ 1•10^-1). For example, the maximum cell kill observed following a single does was in the SCCVII tumor (surviving fraction = 5•10^-1), and only a small tumor growth delay of 3 days was produced in the FSaIIC fibrosarcoma.

[19] = tested on: A549; experiment: In vitro cytotoxicity under aerobic or hypoxic conditions; assay type: cell-based; settings: Homo sapiens; A549 (tumor); 1-hour incubation under hypoxic conditions
[20] = tested on: mouse SCCVII tumors; experiment: Tirapazamine with fractionated radiation in vivo; settings: multiple 0.08 mmol/kg (43 mg/m^2) doses given prior to each radiation fraction (2.5 Gy x 8)
[21] = in vivo; settings: mouse
[22] = Degradation on refluxing in 0.1 N sodium hydroxide; assay type: physicochemical
[23] = Solubility of tirapazamine in water and various vehicles; assay type: physicochemical
[24] = tested on: mouse tumors; experiment: Tirapazamine alone in vivo, tumor cell kill; design: species or system mice; settings: given without radiation; typical
Description: as §2, with “. When” for “When”
[…]. However, the lowest surviving fraction seen in four different mouse tumors was 5•10^-1, and down to 5•10^-2 in a fifth mouse tumor (RIF-1 tumor).

[25] = Rodent, in vitro, drug concentration required under aerobic vs. hypoxic conditions for equivalent cell killing

COCC(O)Cn1ccnc1[N+](=O)[O-] (centres unmarked) [Misonidazole]
Hypoxic Cytotoxicity Ratio [1, 25]: 10-15
Hypoxic Cytotoxicity Ratio [2]: 15

CO[C@@]12[C@H](COC(N)=O)C3=C(C(=O)C(C)=C(N)C3=O)N1C[C@H]1[C@@H]2N1C (some centres unmarked) [Porfiromycin]
Hypoxic Cytotoxicity Ratio [1, 25]: 5-10
Hypoxic Cytotoxicity Ratio [2]: ~10

CN(C)CCCNc1c2ccccc2nc2cccc([N+](=O)[O-])c12 [Nitracrine]
Hypoxic Cytotoxicity Ratio [1]: 7

Nc1n[n+]([O-])c2ccccc2[n+]1[O-] [Tirapazamine, 1,2,4-benzotriazine-3-amine 1,4-dioxide]
Clinical signs and symptoms [3]: salivation, decreases in white blood cell measurements (including lymphocyte count in the dog), and decreases in red blood cell measurements
Clinical signs and symptoms [4]: salivation, decreases in white blood cell measurements (including lymphocyte count in the dog), and decreases in red blood cell measurements
antitumor effect of tirapazamine plus radiation versus additive effect ([5]; one study): exceeds the additive effect of these two treatments
enhancement of the antitumor activity of radiation, compared with etanidazole ([5]; one study): to a greater extent than did the hypoxic cell sensitizer etanidazole
effectiveness with fractionated radiation ([5]; single 0.30 mmol/kg (160mg/m^2) dose versus multiple 0.08 mmol/kg (43 mg/m^2) doses, fractionated radiation (2.5 Gy x 8)): equally effective
effectiveness with single-dose radiation ([5]; single 0.30 mmol/kg (160mg/m^2) dose with a single large (20 Gy) dose of radiation): effective
antitumor activity of radiation (cell killing or tumor growth delay) ([5]; tumors FSaIIC, SCCVII, RIF-1, EMT6, and KHT, single- or multiple-dose schedule, single-dose or fractionated radiation): augments the antitumor activity of radiation
IC50 [6]: 5 µM
IC50 [7]: 13 µM
Stability ([8]; acidic solutions of normal saline or solutions buffered to pH 4 using 0.05M citrate or 0.1 M lactate buffer): more stable
Stability ([8]; citrate buffer at pH 6): unstable
Stability ([8]; phosphate buffer at pH 5.9): unstable
increases in tumor growth delay [9]: 1.6- to 5.3 fold
dose enhancement of alkylating agents [10]: marked dose enhancement leading to synergistic cytotoxic effects on tumor cells
IC50 [11]: 22 µM
Stability [12]: stable
IC50 [13]: 3 µM
partition coefficient (octanol/water) [14]: 0.15
IC50 [15]: 4 µM
Stability ([16]; 0.7 mg/ml in 0.005M citrate buffer pH 4.0, 2 months at 50°C): stable
Stability ([16]; 0.7 mg/ml in 0.05M citrate buffer pH 4.0, 2 months at 50°C): stable
Stability ([16]; 0.7 mg/ml in 0.05M citrate buffer pH 4.0, at 70°C): evidence of instability
Stability ([16]; 0.05M citrate pH 4, compared with the other formulations stressed): most stable formulation
Stability ([16]; lactate buffer, storage at 70°C after a single autoclave cycle): unstable
IC50 [17]: 10 µM
direct tumor cell killing ([18]; 25 to 75 mg/kg IP, mice bearing the FSaIIC fibrosarcoma): some direct tumor cell killing was observed
tumor growth delay ([18]; alone, single dose, FSaIIC fibrosarcoma): 3 days
IC50 [19]: 15 µM
cures [20]: several cures
LD50 [21]: 101 mg/kg
Degradation [22]: complete degradation occurs after refluxing for less than four hours
solubility ([23]; 1% benzyl alcohol : 10% ethanol : 89% water, v/v, 15 °C, aqueous with cosolvent or surfactant or cyclodextrin, 1% Benzyl alcohol: 10% ethanol:89% water, v/v, 15°C): 1230 µg/mL (≈ 6.9 mM)
solubility ([23]; Albumin 4.5% w/v, 20 °C, plasma or biological fluid): 1330 µg/mL (≈ 7.47 mM)
solubility ([23]; Albumin 20% w/v, 20 °C, plasma or biological fluid): 1710 µg/mL (≈ 9.6 mM)
solubility ([23]; Dimethylformamide 25% v/v in water, 15 °C, aqueous with cosolvent or surfactant or cyclodextrin): 1830 µg/mL (≈ 10.3 mM)
solubility ([23]; Ethanol 10% v/v in water, 15 °C, aqueous with cosolvent or surfactant or cyclodextrin): 930 µg/mL (≈ 5.22 mM)
solubility ([23]; Ethanol 50% v/v in water, 15 °C, aqueous with cosolvent or surfactant or cyclodextrin): 2320 µg/mL (≈ 13 mM)
solubility ([23]; Ethanol 65% v/v in water, 15 °C, aqueous with cosolvent or surfactant or cyclodextrin): 2840 µg/mL (≈ 15.9 mM)
solubility ([23]; Ethanol 85% v/v in water, 15 °C, aqueous with cosolvent or surfactant or cyclodextrin): 1710 µg/mL (≈ 9.6 mM)
solubility ([23]; Ethanol, 15 °C, organic solvent or mixture): 470 µg/mL (≈ 2.64 mM)
solubility ([23]; Glycerol 50% v/v in water, 15 °C, aqueous with cosolvent or surfactant or cyclodextrin): 2930 µg/mL (≈ 16.4 mM)
solubility ([23]; Glycerol, 15 °C, organic solvent or mixture): 4590 µg/mL (≈ 25.8 mM)
solubility ([23]; Normal Saline, 15 °C, saline or isotonic): 850 µg/mL (≈ 4.77 mM)
solubility ([23]; PEG 400 50% v/v in water, 15 °C, aqueous with cosolvent or surfactant or cyclodextrin): 1600 µg/mL (≈ 8.98 mM)
solubility ([23]; PEG 400, 15 °C, organic solvent or mixture): 5120 µg/mL (≈ 28.7 mM)
solubility ([23]; Pluronic F68 20% w/v, 15 °C, aqueous with cosolvent or surfactant or cyclodextrin): 1080 µg/mL (≈ 6.06 mM)
solubility ([23]; Povidone (Kollidon 12PF) 10% w/v, 15 °C, aqueous with cosolvent or surfactant or cyclodextrin): 950 µg/mL (≈ 5.33 mM)
solubility ([23]; Propylene glycol 50% v/v in water, 15 °C, aqueous with cosolvent or surfactant or cyclodextrin): 2580 µg/mL (≈ 14.5 mM)
solubility ([23]; Propylene glycol, 15 °C, organic solvent or mixture): 3270 µg/mL (≈ 18.4 mM)
solubility ([23]; Tween 80 0.2% w/v, 15 °C, aqueous with cosolvent or surfactant or cyclodextrin): 900 µg/mL (≈ 5.05 mM)
solubility ([23]; Tween 80 20% w/v, 15 °C, aqueous with cosolvent or surfactant or cyclodextrin): 1020 µg/mL (≈ 5.73 mM)
solubility ([23]; Water for Injections, 15 °C, water): 850 µg/mL (≈ 4.77 mM)
solubility ([23]; Water for Injections, 20 °C, water): 1430 µg/mL (≈ 8.03 mM)
solubility ([23]; citrate buffer 0.05 M pH 4 (isotonic), 15 °C, pH 4, aqueous buffer): 810 µg/mL (≈ 4.55 mM)
solubility ([23]; lactate buffer 0.1 M pH 4 (isotonic), 15 °C, pH 4, aqueous buffer, Lactate buffer O.1M pH 4 (isotonic)): 900 µg/mL (≈ 5.05 mM)
solubility ([23]; water, in water (text, temperature not given)): ~810 µg/mL (≈ 4.55 mM)
cell kill [24]: less than 1 log
